± gives the expanded uncertainty stated by the source.
Experiment: xn = mol fraction of the nth substance listed
Conditions: 101 kPa, Liquid; for viscosity: Capillary tube (Ostwald / Ubbelohde) method; for speed of sound: Frequency=2 MHz, Linear variable-path acoustic interferometer; for mass density: Vibrating tube method

ClCCCl [1,2-dichloroethane] + C1COCCO1
Conditions	mass density, 298.15 K [kg/m3]	mass density, 308.15 K [kg/m3]	mass density, 318.15 K [kg/m3]	speed of sound, 298.15 K [m/s]	viscosity, 298.15 K [mPa·s]	viscosity, 308.15 K [mPa·s]	viscosity, 318.15 K [mPa·s]
x2 = 0	1246.37 ± 0.16	1231.21 ± 0.16	1214.55 ± 0.16	1193.6 ± 1.3	0.7804 ± 0.024	0.6744 ± 0.021	0.5719 ± 0.017
x2 = 0.0934	1221.34 ± 0.19	1206.17 ± 0.19	1189.14 ± 0.18	1198.9 ± 1.3	0.8045 ± 0.025	0.6918 ± 0.021	0.5856 ± 0.018
x2 = 0.1881	1197.17 ± 0.18	1182.34 ± 0.18	1164.97 ± 0.17	1204.7 ± 1.3	0.8332 ± 0.025	0.7127 ± 0.022	0.6042 ± 0.018
x2 = 0.2843	1173.99 ± 0.17	1159.5 ± 0.17	1141.96 ± 0.17	1211.7 ± 1.3	0.864 ± 0.026	0.737 ± 0.023	0.6266 ± 0.019
x2 = 0.3819	1151.77 ± 0.17	1137.63 ± 0.16	1120 ± 0.16	1218.7 ± 1.4	0.8974 ± 0.027	0.7628 ± 0.023	0.6499 ± 0.02
x2 = 0.4258	1142.09 ± 0.16	1128.16 ± 0.16	1110.67 ± 0.15	1222.7 ± 1.4	0.9132 ± 0.028	0.7747 ± 0.024	0.6611 ± 0.02
x2 = 0.5816	1109.56 ± 0.15	1096.17 ± 0.15	1079.43 ± 0.15	1240.4 ± 1.4	0.9729 ± 0.03	0.8211 ± 0.025	0.705 ± 0.022
x2 = 0.6838	1089.25 ± 0.15	1076.38 ± 0.14	1060.46 ± 0.14	1256.1 ± 1.4	1.016 ± 0.031	0.8551 ± 0.026	0.7374 ± 0.023
x2 = 0.7875	1069.16 ± 0.14	1056.58 ± 0.14	1042.21 ± 0.14	1277.4 ± 1.4	1.064 ± 0.032	0.8949 ± 0.027	0.775 ± 0.024
x2 = 0.8929	1048.86 ± 0.14	1036.88 ± 0.14	1024.08 ± 0.13	1306.8 ± 1.4	1.117 ± 0.034	0.9435 ± 0.029	0.8234 ± 0.025

NCCO [2-aminoethan-1-ol] + C1COCCO1
Conditions	mass density, 298.15 K [kg/m3]	mass density, 308.15 K [kg/m3]	mass density, 318.15 K [kg/m3]	speed of sound, 298.15 K [m/s]	viscosity, 298.15 K [mPa·s]	viscosity, 308.15 K [mPa·s]	viscosity, 318.15 K [mPa·s]
x2 = 0	1011.79 ± 0.24	1004.68 ± 0.23	998.15 ± 0.23	1716.8 ± 2	18.95 ± 0.58	11.96 ± 0.37	7.913 ± 0.24
x2 = 0.0597	1015.53 ± 0.23	1007.5 ± 0.22	1000.35 ± 0.22	1696.8 ± 2	16.05 ± 0.49	10.32 ± 0.32	6.94 ± 0.21
x2 = 0.1251	1018.05 ± 0.21	1010.07 ± 0.21	1001.77 ± 0.2	1677.7 ± 1.9	13.39 ± 0.41	8.772 ± 0.27	6.01 ± 0.18
x2 = 0.1969	1020.39 ± 0.2	1011.65 ± 0.19	1003.06 ± 0.19	1654.2 ± 1.9	10.97 ± 0.34	7.34 ± 0.23	5.132 ± 0.16
x2 = 0.276	1022.47 ± 0.18	1013.21 ± 0.18	1004.08 ± 0.17	1626.7 ± 1.8	8.798 ± 0.27	6.031 ± 0.18	4.321 ± 0.13
x2 = 0.3639	1024.23 ± 0.17	1014.47 ± 0.16	1004.75 ± 0.16	1593.6 ± 1.8	6.892 ± 0.21	4.851 ± 0.15	3.555 ± 0.11
x2 = 0.4618	1025.64 ± 0.15	1015.23 ± 0.15	1004.92 ± 0.14	1557.5 ± 1.7	5.249 ± 0.16	3.804 ± 0.12	2.867 ± 0.088
x2 = 0.5716	1026.41 ± 0.14	1015.49 ± 0.14	1005.06 ± 0.13	1517.9 ± 1.7	3.868 ± 0.12	2.898 ± 0.089	2.255 ± 0.069
x2 = 0.6958	1027.09 ± 0.13	1015.74 ± 0.12	1004.96 ± 0.12	1471.8 ± 1.6	2.739 ± 0.084	2.132 ± 0.065	1.719 ± 0.053
x2 = 0.8373	1027.58 ± 0.12	1016.22 ± 0.12	1005.1 ± 0.11	1417.1 ± 1.5	1.849 ± 0.056	1.506 ± 0.046	1.266 ± 0.039

NCCN [ethane-1,2-diamine] + C1COCCO1
Conditions	mass density, 298.15 K [kg/m3]	mass density, 308.15 K [kg/m3]	mass density, 318.15 K [kg/m3]	speed of sound, 298.15 K [m/s]	viscosity, 298.18 K [mPa·s]	viscosity, 308.15 K [mPa·s]	viscosity, 318.15 K [mPa·s]
x2 = 0	894.79 ± 0.23	885.63 ± 0.23	867.62 ± 0.24	1670.8 ± 2	1.276 ± 0.039	1.107 ± 0.034	0.9445 ± 0.029
x2 = 0.08	907.17 ± 0.22	897.75 ± 0.23	880.1 ± 0.23	1625.9 ± 1.9	1.263 ± 0.039	1.092 ± 0.034	0.9318 ± 0.029
x2 = 0.1636	919.48 ± 0.21	909.85 ± 0.21	892.74 ± 0.21	1585.3 ± 1.8	1.25 ± 0.038	1.078 ± 0.033	0.9205 ± 0.028
x2 = 0.2511	931.76 ± 0.19	921.06 ± 0.19	905.51 ± 0.2	1546.2 ± 1.8	1.239 ± 0.038	1.066 ± 0.033	0.9111 ± 0.028
x2 = 0.3428	944.28 ± 0.18	934.33 ± 0.18	918.46 ± 0.18	1506.8 ± 1.7	1.228 ± 0.038	1.053 ± 0.032	0.9021 ± 0.028
x2 = 0.385	949.92 ± 0.17	939.89 ± 0.17	924.35 ± 0.17	1488.8 ± 1.7	1.223 ± 0.037	1.048 ± 0.032	0.8983 ± 0.028
x2 = 0.5399	970.35 ± 0.15	959.96 ± 0.15	945.42 ± 0.15	1428.4 ± 1.6	1.206 ± 0.037	1.033 ± 0.032	0.8929 ± 0.027
x2 = 0.6461	984.1 ± 0.1	973.48 ± 0.14	959.55 ± 0.14	1395.1 ± 1.6	1.197 ± 0.037	1.026 ± 0.031	0.8913 ± 0.027
x2 = 0.7578	998.37 ± 0.13	987.59 ± 0.13	974.27 ± 0.13	1369.6 ± 1.5	1.189 ± 0.036	1.019 ± 0.031	0.8918 ± 0.027
x2 = 0.8756	1013.03 ± 0.12	1002.04 ± 0.12	989.43 ± 0.12	1353.7 ± 1.5	1.182 ± 0.036	1.016 ± 0.031	0.8902 ± 0.027

— the NIST ThermoML archive (doi:10.1016/j.fluid.2015.06.041)
